Data published in paper PMC8294944 (Journal of agricultural and food chemistry, 2020).
Like-named read-outs stand apart in the source and are kept apart here.

Key:
[1] = target: T1, ERα (Ishikawa endometrial carcinoma cells) (Homo sapiens, UniProt P03372); assay: Estrogen-responsive alkaline phosphatase assay in ERα positive Ishikawa cells; type: cell-based; details: for Emax: Ishikawa, read-out: ERα Maximum efficacy
T1 sequence (P03372 1-595): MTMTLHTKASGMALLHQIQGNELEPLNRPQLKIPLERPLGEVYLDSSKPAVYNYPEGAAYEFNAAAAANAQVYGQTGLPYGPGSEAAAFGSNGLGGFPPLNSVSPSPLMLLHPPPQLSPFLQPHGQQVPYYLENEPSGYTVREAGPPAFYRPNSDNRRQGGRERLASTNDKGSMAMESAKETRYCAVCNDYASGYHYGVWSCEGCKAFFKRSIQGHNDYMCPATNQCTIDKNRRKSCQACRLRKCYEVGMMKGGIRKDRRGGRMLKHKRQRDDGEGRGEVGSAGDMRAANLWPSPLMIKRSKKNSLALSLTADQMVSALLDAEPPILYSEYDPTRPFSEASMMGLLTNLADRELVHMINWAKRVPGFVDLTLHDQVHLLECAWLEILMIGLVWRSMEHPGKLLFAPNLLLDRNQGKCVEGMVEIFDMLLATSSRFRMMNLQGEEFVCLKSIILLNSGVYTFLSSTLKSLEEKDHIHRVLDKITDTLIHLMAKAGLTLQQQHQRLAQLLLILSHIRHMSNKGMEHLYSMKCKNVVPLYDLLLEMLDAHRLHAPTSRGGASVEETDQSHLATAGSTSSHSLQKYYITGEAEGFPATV

[2] = target: T2, purified full length human recombinant ERα (Homo sapiens, UniProt P03372); assay: ERα competitive binding assay
T2 sequence (P03372 1-595): T1 sequence (P03372 1-595)

[3] = target: purified full length human recombinant ERβ (Homo sapiens, UniProt Q92731); assay: ERβ competitive binding assay
[4] = target: T1, ERα (Ishikawa endometrial carcinoma cells); details: read-out: ERα EC50 (LigF); compared with 8-PA; cited from earlier work
uterine tissue = details: 8-PN in dietary concentrations; cited from earlier work
[5] = alkaline phosphatase, Ishikawa cells, mean ± SEM
[6] = read-out: ERα EC50 (compounds), alkaline phosphatase, Ishikawa cells, mean ± SEM
[7] = relative to 17β-E2, [3H]-E2 tracer 20 nM

Chain of purified full length human recombinant ERβ (Q92731 whole entry): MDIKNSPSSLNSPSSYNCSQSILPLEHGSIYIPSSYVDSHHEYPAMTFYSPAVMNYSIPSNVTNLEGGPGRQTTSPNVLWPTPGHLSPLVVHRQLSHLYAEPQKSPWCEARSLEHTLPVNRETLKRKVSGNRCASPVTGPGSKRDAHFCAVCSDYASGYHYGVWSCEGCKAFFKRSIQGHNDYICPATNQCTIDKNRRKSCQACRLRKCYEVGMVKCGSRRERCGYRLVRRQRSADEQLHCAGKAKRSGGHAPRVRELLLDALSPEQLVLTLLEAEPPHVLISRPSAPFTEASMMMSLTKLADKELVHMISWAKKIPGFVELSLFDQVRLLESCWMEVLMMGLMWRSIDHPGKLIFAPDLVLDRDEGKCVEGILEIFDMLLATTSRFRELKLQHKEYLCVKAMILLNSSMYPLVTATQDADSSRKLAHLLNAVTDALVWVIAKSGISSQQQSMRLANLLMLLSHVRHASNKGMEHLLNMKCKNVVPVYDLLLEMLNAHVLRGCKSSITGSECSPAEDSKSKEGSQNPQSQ

For O=C1C[C@@H](c2ccc(O)cc2)Oc2cc(O)cc(O)c21 [NRG, naringenin], the EC50 [1] was 3700 ± 500 nM, the Emax [1] was 69 ± 6% and the “ERα % RBA (relative binding affinity = IC50 E2/IC50 (iso)flavonoid x100)” value [2] was under 0.002%. The “ERβ % RBA (relative binding affinity = IC50 E2/IC50 (iso)flavonoid x100)” value [3] was 0.05%.
In the case of Dehydrogenistein [DGN], the “ERα Maximum efficacy” value [1, 5] is reported as 84 ± 4.0, the EC50 [1, 6] is reported as 800 ± 100 nM and the “ERα % RBA (relative binding affinity = IC50 E2/IC50 (iso)flavonoid x100)” value [2, 7] is reported as under 0.002%. The “ERβ % RBA (relative binding affinity = IC50 E2/IC50 (iso)flavonoid x100)” value [3, 7] was 14%.
In the case of CC(C)=CCc1c(O)cc(O)c2c(=O)c(-c3ccc(O)cc3)coc12 [8-PG, 8-Prenylgenistein], the EC50 [1] is reported as 500 ± 200 nM, the Emax [1] is reported as 49 ± 10% and the “ERα % RBA (relative binding affinity = IC50 E2/IC50 (iso)flavonoid x100)” value [2, 7] is reported as under 0.002%. For the same molecule, the “ERβ % RBA (relative binding affinity = IC50 E2/IC50 (iso)flavonoid x100)” value [3, 7] was 0.9%.
In the case of CC(C)=CCc1c(O)cc(O)c2c(=O)c(O)c(-c3ccc(O)cc3)oc12 [DMI, Desmethylicaritin], the “ERα Maximum efficacy” value [1, 5] is reported as 67 ± 12 and the EC50 [1, 6] is reported as 200 ± 20 nM.
In the case of O=C1C[C@@H](c2ccc(O)cc2)Oc2cc(O)ccc21 [LigF, liquiritigenin], the EC50 [4] is given as 3400 nM.
In the case of CC(C)=CCc1c(O)cc(O)c2c1O[C@H](c1ccc(O)cc1)CC2=O [8-PN, 8-Prenylnaringenin], the “Effect on uterine weight” value (uterine tissue) is given as “increased uterine weight”.
